Patent publication US20130237590A1, “ASSESSING THYROID NEOPLASMS” (MAYO FOUNDATION FOR MEDICAL EDUCATION AND RESEARCH, priority 2010, published 2013)

How the values were obtained:
miR-122 [1] = experiment: miR-122 quantitation by quantitative RT-PCR in WRO cells; format: cell-based; conditions: WRO-vector cells treated with 10 μM GW9662 for 24 hours
Experimental: (§1) To generate stable lines, cells were seeded at 1×10^6 cells per 100 mm petri dish and transfected 24 hours later in multiples of six, with 10 μg each of vector or PPFP using LT-1 (Minus Bio, Madison, Wis.). For the generation of DN-PPARγ and miR stable cells, the DN-PPARγ construct (Reddi et al., Expression of the PAX8/PPARγ Fusion Protein Is Associated with Decreased Neovascularization In Vivo: Impact on Tumorigenesis and Disease Prognosis, Genes and Cancer, (2010)), mmu-Null, and mmu-miR122-EGFP constructs (Cellbio labs) were used. After 72 hours, WRO-Vector, WRO-PPFP, WRO-DN-PPARγ, FTC-Vector, and FTC−PPFP cells were obtained by selection in media containing 400 μg/mL of G418 (Invitrogen) with media changes every 72 hours. WRO-miR-Null and WRO-miR-122 cells were generated using 2.5 μg/mL puromycin selection. Pools of cells were harvested and analyzed for mRNA and microRNA expression by quantitative RT-PCR and for polypeptide expression by Western blotting.
(§2) RNA from each group of cells was isolated using TriZol Reagent (Invitrogen). […] PAX8/PPARγ fusion gene was detected by PCR using 5 μL of cDNA and a sense primer from exon 7 of PAX8 (5′-CGCGGATCCGCATT-GACTCACAGAGCA-3; SEQ ID NO:1; see, also, GenBank Accession No. NM_013953 and GI No.81295803) and antisense primer from exon 1 of PPARγ1 (5′-[…]-3; SEQ ID NO:2; GenBank Accession No. NM_138712 and GI No. 116284369). […]

PPARγ [2] = experiment: PPRE luciferase reporter assay in WRO cells; format: cell-based
Experimental: (§3) Cells (0.3×10^6 cells/well) in six well plates were transfected using LT-1 reagent (Mirus, Madison Wis.) with 10 ng of Renilla (Promega, Madison, Wis.) and […] of PPRE-Aco-Luc reporter in triplicate. After 24 hours, cells were lysed and assayed using the dual luciferase kit (Promega). Data was calculated as a ratio of the luciferase to renilla expression and plotted as fold-change compared to vector. To test the effect of GW9662 on PPARγ activity, cells were treated 18 hours post transfection with either 2 μL DMSO or 10 μM GW9662 (a potent antagonist of PPARγ) for 24 hours prior to harvest and assay.

WRO cells [3] = experiment: in vivo xenograft tumor formation assay, WRO stable cells; set-up: species or system athymic nude mice; conditions: WRO-PPFP cells, by 5 weeks
Experimental: (§4) Stable cells (10^7) were resuspended in 100 μL of growth media and injected subcutaneously into both flanks of 5 week-old athymic nude mice (Fox1^nu/nu, Harlan, Indianapolis, Ind.). At least three mice were injected per group. Tumor size was determined weekly by measuring tumor length (L), width (W), and height (H) using vernier calipers (Vtumor=0.5236 LWH).

KTC-3 cells = experiment: in vivo xenograft tumor formation assay, KTC-3 anaplastic thyroid cancer cells; set-up: species or system athymic nude mice; conditions: KTC-3-PPFP anaplastic thyroid cancer cells; in 6 weeks
Experimental: (§5) To generate stable lines, cells were seeded at 1×10^6 cells per 100 mm petri dish and transfected 24 hours later in multiples of six, with 10 μg each of vector or PPFP using LT-1 (Minus Bio, Madison, Wis.). After 72 hours, ARO-Vector, ARO-PPFP, DRO-Vector, DRO-PPFP, FRO-Vector, FRO-PPFP, KTC-3-Vector, and KTC-3-PPFP cells were obtained by selection in media containing 400 μg/mL of G418 (Invitrogen) with media changes every 72 hours. Pools of cells were harvested and analyzed for PPFP expression by reverse transcriptase PCR.
(§6) Stable cells (10^7) were resuspended in 100 μL of growth media and injected subcutaneously into both flanks of 5 week-old athymic nude mice (Fox1^nu/nu Harlan, Indianapolis, Ind.). At least three mice were injected per group. Tumor size was determined weekly by measuring tumor length (L), width (W), and height (H) using vernier calipers (Vtumor=0.5236 LWH).

WRO cells [4] = experiment: in vitro cell growth of stable WRO cells (absorbance at 490 nm); format: cell-based; conditions: stable WRO cells compared to WRO-vector cells; 72 hours
Experimental: as §1

DRO cells = experiment: in vivo xenograft tumor formation assay, DRO melanoma cells; set-up: species or system athymic nude mice; conditions: DRO-PPFP melanoma cells; by 6 weeks
Experimental: as §5, §6

ADAM-17 [5] = experiment: ADAM-17 transcript levels in WRO cells; format: cell-based; conditions: stable WRO cells
ARO cells = experiment: in vivo xenograft tumor formation assay, ARO colon cancer cells; set-up: species or system athymic nude mice; conditions: ARO-PPFP colon cancer cells; by 4 weeks
Experimental: as §5, §6

miR-122 [6] = experiment: miR-122 quantitation in WRO xenografts; format: in vivo, athymic nude mice
Experimental: RNA from each group of cells was isolated using TriZol Reagent (Invitrogen). RNA (1 μg) was reverse transcribed with oligo-dT primers using Message Sensor RT kit (Ambion, Austin, Tex.). PAX8/PPARγ fusion gene was detected by PCR using 5 μL of cDNA and a sense primer from exon 7 of PAX8 (5′-CGCGGATCCGCATT-GACTCACAGAGCA-3; SEQ ID NO:1; see, also, GenBank Accession No. NM_013953 and GI No.81295803) and antisense primer from exon 1 of PPARγ1 (5′-[…]-3; SEQ ID NO:2; GenBank Accession No. NM_138712 and GI No. 116284369). Glyceraldehyde 3-phosphate dehydrogenase (GAPDH) was amplified using kit primers. Xenografts were harvested at weeks 1 and 2 post induction and homogenized in T-PER (Pierce, Rockford, Ill.). RNA was extracted, and RT-PCR was performed for PPFP and GAPDH. Annealing temperature for PPFP and GAPDH was 55° C. for 30 seconds. miR-122 status was verified using TaqMan microRNA assays (Applied Biosystems) as per the manufacturer's instructions.
as §4

FRO cells = experiment: in vivo xenograft tumor formation assay, FRO anaplastic thyroid cancer cells; set-up: species or system athymic nude mice; conditions: FRO-PPFP anaplastic thyroid cancer cells; in 5 weeks
Experimental: as §5, §6

miR-122 [7] = experiment: miR-122 quantitation in FTC-133 cells; format: cell-based
Experimental: as §1, §2

CD-31 = experiment: microvessel density by CD-31 staining of WRO xenografts; format: in vivo, athymic nude mice; conditions: WRO xenografts compared to control xenografts
Experimental: Four tumors per group were formalin-fixed, paraffin-embedded, and individual sections stained with CD-31 (sc-1506-R, Santa Cruz, 1:200 dilution) specific antibody for 30-60 minutes and counterstained with hematoxylin. Antigen retrieval was done in EDTA at […] for 30 minutes after deparaffinization. Sections were blocked with peroxidase for 5 minutes and protein for 5 minutes. Antibody staining was visualized using Dako Envision plus System for 15 minutes followed by DAB chromogen for 10 minutes. Separate tumor sections were stained with hematoxylin and eosin to visualize tumor histology.
Stained slides were scanned using the Hamamatsu NanoZoomer (Bacus Laboratories, Inc., Chicago, Ill.). Digital images composed of multiple tiles (4096×64 pixel) were captured at 20× magnification. Image analysis was conducted as described elsewhere (Monahan et al., Endocrinology 150:4386-4394 (2009)). For each tumor section, the relative signal intensity from 10 randomly chosen fields (205×300 pixel) was quantified by histogram analysis (Adobe Photoshop). Data was expressed as signal intensity (signal pixel count divided by total image pixel count).

FTC-133 cells = experiment: in vivo xenograft tumor formation assay, FTC-133 stable cells; set-up: species or system athymic nude mice; conditions: FTC-133-PPFP cells (PTEN-null); by 4 weeks; vs vector only
Experimental: as §4

PPARγ [8] = experiment: PPRE luciferase reporter assay in FTC-133 cells; format: cell-based; conditions: FTC-133-PPFP cells
Experimental: as §3

ADAM-17 [9] = experiment: ADAM-17 transcript levels in immortalized thyrocytes; format: cell-based; conditions: immortalized thyrocytes (N-Thy-ori cells) expressing PPFP

O=C(Nc1ccccc1)c1cc([N+](=O)[O-])ccc1Cl [GW9662, reference compound]
miR-122 expression (miR-122 [1]): not accompanied by increased miR-122 expression | PPRE activity (PPARγ [2]; WRO-vector cells treated with 10 μM GW9662 for 24 hours): significant decrease in PPRE activity

PPFP: PAX8/PPARγ fusion protein, constitutively expressed from a CMV promoter construct in stably transfected cancer cell lines
inhibition of xenograft tumor progression (WRO cells [3]): 72% | inhibition of xenograft tumor progression (WRO cells [3]; vs vector only): 9 fold | inhibition of xenograft tumor progression (KTC-3 cells): 77.2% | decrease (inhibition) of in vitro cell growth (WRO cells [4]): 19% | inhibition of xenograft tumor progression (DRO cells): 57.5% | reduction of ADAM-17 mRNA expression (ADAM-17 [5]): 50% | inhibition of xenograft tumor progression (ARO cells): 39.5% | increase in miR-122 expression (miR-122 [6]): 40.0 (p < 0.054) fold | inhibition of xenograft tumor progression (FRO cells): 80.1% | inhibition of PPARγ activity (activation of PPRE) (PPARγ [2]; stable WRO cells vs vector): 29% | miR-122 expression (miR-122 [7]; FTC-133(+PPFP) cells (PTEN-null)): did not increase miR-122 expression | decrease in microvessel density (CD-31 staining) (CD-31): 2.1 fold | inhibition of xenograft tumor progression (FTC-133 cells): < 2 fold | inhibition of activation of PPRE (PPARγ [8]): 69% | reduction of ADAM-17 mRNA expression (ADAM-17 [9]): not

PTEN: PTEN transiently expressed from an expression plasmid in FTC-133 cells [reference compound]
increase in miR-122 expression (miR-122 [7]; transient expression of PTEN in FTC-133(+PPFP) cells vs vector only cells): 77 fold
